{"source": "patent US20030036049A1", "about": "“Optical method for testing sensitivity of cells” (MEDIS EL LTD., priority 2001, published 2003)", "key": {"[1]": {"tested_on": "T47D human breast cancer cells", "assay": "Rh123 fluorescence intensity, Electro-optical scanner (CellScan)", "format": "cell-based", "description": "(§1) About 2×10^5 cells were plated on 6 well-plates and left overnight to adhere. Two different concentrations of different drugs were added for a period of 24, 48 and 72 hours and then cells were harvested with trypsin, centrifuged, and resuspended in culture medium until staining.\n(§2) Cell staining and loading: Three samples were prepared for each treatment at a specific time point and stained each with a different dye: fluorescein diacetate (FDA), rhodamine 123 (Rh123), and acridine orange (AO). […]\nRh123 (1 microgram/milliliter final concentration) was added to cells suspended in culture medium for 30 minutes at 37° C. Then the cells were washed twice with cold PBS supplemented with Mg^+2 and Ca^+2, loaded on the cell carrier and fluorescence intensity and polarization were measured by an Argon laser-based Electro-optical scanner. […]\n(§3) For the excitation of FDA-stained cells an He/Cd laser was utilized (442 nm, excitation power of 4.5 microwatt) and emission measured at 527 nm. For the detection of AO and Rh123-stained cells an Argon laser was utilized (488 nm, excitation power of 15 microwatt) and emission measured at 530 nm.\n(§4) The fluorescence emission of an area containing 20×20 wells was measured using a preset photon counting mode in which the same number of photons is counted for each cell (10,000), canceling differences in precision from strong and weak-emitting cells. […]"}, "[2]": {"tested_on": "T47D human breast cancer cells", "assay": "AO fluorescence intensity, Electro-optical scanner (CellScan)", "format": "cell-based", "conditions": "FIG. 6 panels 195-197", "description": "as §1\n(§5) Cell staining and loading: Three samples were prepared for each treatment at a specific time point and stained each with a different dye: fluorescein diacetate (FDA), rhodamine 123 (Rh123), and acridine orange (AO).\n(§6) AO is usually used as a direct probe for nucleic acids in fixed or permeabilized cells. When used under appropriate conditions of concentration and pH it gives bright green fluorescence when bound to double-stranded DNA and red deep fluorescence when bound to single strand RNA and can serve for estimation of cellular DNA content and transcriptional activity. AO was added directly to the cell carrier loaded with cells for 5 minutes at a final concentration of 10 microgram/milliliter, washed twice directly on the grid and measured on an Argon laser-based Electro-optical scanner. […]\n(§7) For the excitation of FDA-stained cells an He/Cd laser was utilized (442 nm, excitation power of 4.5 microwatt) and emission measured at 527 nm. For the detection of AO and Rh123-stained cells an Argon laser was utilized (488 nm, excitation power of 15 microwatt) and emission measured at 530 nm. […]"}, "[3]": {"tested_on": "T47D human breast cancer cells", "assay": "FDA fluorescence polarization, Electro-optical scanner (CellScan)", "format": "cell-based", "conditions": "FIG. 5 panel 191", "description": "as §1, §2\n(§8) Cells in suspension were stained for 5 minutes with FDA at a final concentration of 2.4 micromolar. The cells were then loaded on the cell carrier, washed twice with PBS supplemented with Mg^+2 and Ca^+2, and fluorescence intensity and polarization were measured by an He/Cd laser-based CellScan™ electro-optical scanner. […]\nas §3, §4"}, "[4]": {"tested_on": "T47D human breast cancer cells", "assay": "Viable cell count on hemocytometer with trypan blue exclusion", "format": "cell-based", "conditions": "low and high doses, 24, 48, 72 hours, FIG. 2 panel 181", "description": "(§9) Cell culture: T80 and T47D human breast cancer cells were routinely cultured in DMEM supplemented with 10% fetal calf serum (FCS) (Biological Industries, Beit Haemek, Israel), 4 mM glutamine (Biological Ind.), 100 u/ml penicillin, 0.1 milligram/milliliter streptomycin, 12.5 units/milliliter nystatin (Biological Ind.) and 0.2 units/milliliter insulin (Lilly, Fegersheim, France).\nas §1\n(§10) Navelbine and 5-Fluorouracil (5FU) where added at low and high doses to T80 and T47D cells respectively for 24, 48, and 72 hours. The cells were counted on a hemocytometer, using trypan blue for exclusion of dead cells, for the purpose of Electro-optical scanner -independent estimation of drug efficacy."}, "[5]": {"tested_on": "T80 human breast cancer cells", "assay": "Rh123 fluorescence intensity, Electro-optical scanner (CellScan)"}, "[6]": {"tested_on": "T80 human breast cancer cells", "assay": "AO fluorescence intensity, Electro-optical scanner (CellScan)", "format": "cell-based", "conditions": "one day after starting treatment, FIG. 6 panels 192-194", "description": "as §1, §5, §6, §7"}, "[7]": {"tested_on": "T80 human breast cancer cells", "assay": "FDA fluorescence polarization, Electro-optical scanner (CellScan)", "format": "cell-based", "conditions": "FIG. 5 panel 190", "description": "as §1, §2, §8, §3, §4"}, "[8]": {"tested_on": "T80 human breast cancer cells", "assay": "Viable cell count on hemocytometer with trypan blue exclusion", "format": "cell-based", "conditions": "low and high doses, 24, 48, 72 hours, FIG. 2 panel 180", "description": "as §9, §1, §10"}}, "data": [{"smiles": "O=c1[nH]cc(F)c(=O)[nH]1", "note": "[5FU, 5-Fluorouracil]", "values": [{"measurement": "change in Rh123 fluorescence intensity versus control untreated cells", "setting": "[1]; FIG. 3 panel 183", "value": "no significant change in fluorescence intensity"}, {"measurement": "change of mean fluorescence intensity of Rh123 stained cells, measured one-cell-at-a-time", "setting": "[1]; FIG. 4 panels 187-189", "value": "no significant change of mean fluorescence intensity"}, {"measurement": "change of mean fluorescence intensity of AO stained cells, measured one-cell-at-a-time", "setting": "[2]", "value": "no significant change of mean fluorescence intensity"}, {"measurement": "change of mean polarization of FDA fluorescence", "setting": "[3]", "value": "no significant change of mean fluorescence polarization"}, {"measurement": "effect on number of viable cells counted (trypan blue exclusion)", "setting": "[4]", "value": "mild and not significant effects"}]}, {"smiles": "CCC1=C[C@@H]2CN(C1)Cc1c([nH]c3ccccc13)[C@@](C(=O)OC)(c1cc3c(cc1OC)N(C)[C@H]1[C@@](O)(C(=O)OC)[C@H](OC(C)=O)[C@]4(CC)C=CCN5CC[C@]31[C@@H]54)C2", "note": "[Navelbine]", "values": [{"measurement": "change in Rh123 fluorescence intensity versus control untreated cells", "setting": "[5]; FIG. 3 panel 182", "value": "decrease in Rh123 fluorescence intensity is obvious and markedly significant"}, {"measurement": "change of mean fluorescence intensity of Rh123 stained cells, measured one-cell-at-a-time", "setting": "[5]; one day after starting treatment, FIG. 4 panels 184-186", "value": "decrease of mean fluorescence intensity"}, {"measurement": "change of mean fluorescence intensity of AO stained cells, measured one-cell-at-a-time", "setting": "[6]", "value": "decrease of mean fluorescence intensity"}, {"measurement": "change of mean polarization of FDA fluorescence", "setting": "[7]", "value": "increase of mean polarization"}, {"measurement": "effect on number of viable cells counted (trypan blue exclusion)", "setting": "[8]", "value": "cytotoxic effect"}]}]}
